Experimental findings from patent US20120129858A1, “COMPOUNDS, COMPOSITIONS AND METHODS COMPRISING PYRIDAZINE SULFONAMIDE DERIVATIVES” (INSTITUTE FOR ONEWORLD HEALTH, priority 2009, published 2012) are described below.

T1 sequence (P13569 whole entry): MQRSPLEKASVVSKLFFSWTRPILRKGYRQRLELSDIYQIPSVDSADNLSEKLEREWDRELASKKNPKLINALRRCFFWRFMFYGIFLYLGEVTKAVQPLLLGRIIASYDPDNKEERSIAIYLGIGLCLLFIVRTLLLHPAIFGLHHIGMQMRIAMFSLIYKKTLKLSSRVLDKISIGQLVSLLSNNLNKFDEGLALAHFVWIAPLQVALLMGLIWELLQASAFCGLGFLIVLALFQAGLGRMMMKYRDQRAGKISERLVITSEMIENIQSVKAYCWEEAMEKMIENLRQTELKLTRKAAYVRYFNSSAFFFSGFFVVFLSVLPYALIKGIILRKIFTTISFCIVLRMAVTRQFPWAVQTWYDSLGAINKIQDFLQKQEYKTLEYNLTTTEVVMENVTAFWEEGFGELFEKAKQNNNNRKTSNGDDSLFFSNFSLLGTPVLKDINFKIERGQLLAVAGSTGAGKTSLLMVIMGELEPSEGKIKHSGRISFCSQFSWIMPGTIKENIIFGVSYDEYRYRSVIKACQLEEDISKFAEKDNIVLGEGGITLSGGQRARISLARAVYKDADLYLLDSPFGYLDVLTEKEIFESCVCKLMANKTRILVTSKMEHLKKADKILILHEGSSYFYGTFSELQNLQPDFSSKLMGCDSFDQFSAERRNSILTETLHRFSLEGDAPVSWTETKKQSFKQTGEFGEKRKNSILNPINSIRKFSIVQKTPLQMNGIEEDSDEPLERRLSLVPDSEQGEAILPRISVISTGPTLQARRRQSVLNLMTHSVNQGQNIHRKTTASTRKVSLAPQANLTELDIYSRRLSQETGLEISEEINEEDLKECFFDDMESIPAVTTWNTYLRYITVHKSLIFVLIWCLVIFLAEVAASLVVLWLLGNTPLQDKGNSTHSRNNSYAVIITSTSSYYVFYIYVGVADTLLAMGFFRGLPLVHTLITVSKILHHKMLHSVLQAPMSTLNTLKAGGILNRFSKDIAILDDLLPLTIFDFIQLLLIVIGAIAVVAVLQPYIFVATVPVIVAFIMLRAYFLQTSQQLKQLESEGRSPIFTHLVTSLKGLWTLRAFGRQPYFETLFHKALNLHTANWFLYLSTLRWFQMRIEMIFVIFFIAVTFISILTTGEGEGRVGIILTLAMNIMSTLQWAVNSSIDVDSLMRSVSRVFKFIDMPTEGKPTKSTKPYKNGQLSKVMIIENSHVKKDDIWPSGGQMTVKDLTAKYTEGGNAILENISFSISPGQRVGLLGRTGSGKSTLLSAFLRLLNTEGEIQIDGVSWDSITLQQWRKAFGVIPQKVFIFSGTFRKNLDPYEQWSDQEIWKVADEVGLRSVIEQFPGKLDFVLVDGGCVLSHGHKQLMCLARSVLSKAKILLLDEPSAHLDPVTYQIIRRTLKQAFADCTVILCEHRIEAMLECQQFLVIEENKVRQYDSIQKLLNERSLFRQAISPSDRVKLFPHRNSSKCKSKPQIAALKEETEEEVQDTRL

One test concerns the target T1, CFTR (Homo sapiens, UniProt P13569).
T1 construct: host or cells: T84 human colonic cells
In words: T84 assay (FLIPR membrane potential dye, forskolin/IBMX-stimulated CFTR channel activity). The format is cell-based. Particulars: average of at least 2 runs unless annotated n = 1. The protocol: Human colonic T84 cells are acquired from the European Collection of Cell Cultures (ECACC) and are grown in standard culture conditions as described by the supplier. On the day before assay 25,000 T84 cells per well are plated into standard black walled, clear bottom 384-well assay plates in standard growth medium consisting of DMEM:F12 with 10% FBS and incubated overnight. On the day of the assay the plates are washed using a standard assay buffer (HBSS with 10 mM Hepes) and incubated for 15 minutes in serum free cell culture medium before the addition of a commercially available membrane potential sensitive fluorescent dye (FLIPR Red membrane potential dye, Molecular Devices Corporation). T84 cells are incubated with the FLIPR Red membrane potential dye for 45 minutes in the presence and absence of test compound before being transferred to a commercially available fluorescence imaging plate reader (FLIPR384, Molecular Devices Corporation). Fluorescence levels are monitored continuously every second for 150 seconds; after an initial 10 second baseline, CFTR channel activity is stimulated through the addition of 10 μM forskolin in the presence of 100 μM of the phosphodiesterase inhibitor iso-butyl-methylxanthine (IBMX). Addition of the forskolin leads to the activation of intracellular adenylyl cylase 1, elevating cAMP levels and results in the phosphorylation and opening of CFTR anion channels. CFTR channel opening causes chloride ion efflux and subsequent depolarization of the cells, which is measured by an increase in fluorescence. CFTR inhibitor compounds prevent cell depolarization and the associated increase in fluorescence.
Unless otherwise indicated, the IC50 values are reported as an average of at least 2 runs. Where only 1 run is used, it is indicated by the annotation “n=1.”
For `CCN(Cc1ccccc1)c1ccc(-c2cccc(NS(C)(=O)=O)c2)nn1` [Compound 7, N-(3-(6-(benzyl(ethyl)amino)pyridazin-3-yl)phenyl)methanesulfonamide], 2.23 µM corresponded to half-maximal inhibition (IC50).

Regarding `CC(C)(C)c1ccc(S(=O)(=O)NC(=O)c2cccc(-c3ccc(OCCc4ccc(Cl)cc4)nn3)c2)cc1` [Compound 14, N-(4-tert-butylphenylsulfonyl)-3-(6-(4-chlorophenethoxy)pyridazin-3-yl)benzamide], half-maximal inhibition (IC50) required 20.1 µM.

`O=S(=O)(Nc1cccc(-c2ccc(OCCc3ccc(Cl)cc3)nn2)c1)c1ccc(N2CCOCC2)nc1` [Compound 4, N-(3-(6-(4-chlorophenethoxy)pyridazin-3-yl)phenyl)-6-morpholinopyridine-3-sulfonamide]: the IC50 (as a rule, the concentration needed to halve the response being measured) worked out at 5.55 µM.

Consider `CCN(Cc1ccccc1)c1ccc(-c2cccc(N3CCCS3(=O)=O)c2)nn1` [Compound 26, Benzyl-{6-[3-(1,1-dioxo-isothiazolidin-2-yl)-phenyl]-pyridazin-3-yl}-ethylamine], for which the half-inhibitory concentration (IC50) was 3.77 µM.

In the case of `CCS(=O)(=O)NC(=O)c1cccc(-c2ccc(OCCc3ccc(Cl)cc3)nn2)c1` [Compound 13, 3-(6-(4-chlorophenethoxy)pyridazin-3-yl)-N-(ethylsulfonyl)benzamide], inhibition was half-maximal at 18.7 µM (IC50).

Molecule `Cc1ccc(S(=O)(=O)NC(=O)c2ccc(-c3ccc(OCCc4ccc(Cl)cc4)nn3)cc2)cc1` [Compound 23, 4-(6-(4-chlorophenethoxy)pyridazin-3-yl)-N-tosylbenzamide] returned an IC50 of 3.03 µM.

Molecule `O=C(NS(=O)(=O)Cc1ccccc1)c1cccc(-c2ccc(OCCc3ccc(Cl)cc3)nn2)c1` [Compound 17, N-(benzylsulfonyl)-3-(6-(4-chlorophenethoxy)pyridazin-3-yl)benzamide] showed an IC50 of 6.05 µM.

On to `O=C(NS(=O)(=O)c1ccc(F)cc1F)c1cccc(-c2ccc(OCCc3ccc(Cl)cc3)nn2)c1` [Compound 21, 3-(6-(4-chlorophenethoxy)pyridazin-3-yl)-N-(2,4-difluorophenylsulfonyl)benzamide], for which 18.7 µM corresponded to half-maximal inhibition (IC50).

In turn, `CC(C)(C)c1ccc(S(=O)(=O)Nc2cccc(-c3ccc(OCCc4ccc(Cl)cc4)nn3)c2)cc1` [Compound 18, 4-tert-butyl-N-(3-(6-(4-chlorophenethoxy)pyridazin-3-yl)phenyl)benzenesulfonamide] came in with an IC50 of 8.09 µM.

`O=S(=O)(Nc1ccc(-c2ccc(OCCc3ccc(Cl)cc3)nn2)cc1)C(F)(F)F` [Compound 22, N-(4-(6-(4-chlorophenethoxy)pyridazin-3-yl)phenyl)-1,1,1-trifluoromethanesulfonamide] registered a 50% inhibitory concentration (IC50) of 2.84 µM.

In turn, `O=S(=O)(CC(F)(F)F)Nc1cccc(-c2ccc(OCCc3ccc(Cl)cc3)nn2)c1` [Compound 20, N-(3-(6-(4-chlorophenethoxy)pyridazin-3-yl)phenyl)-2,2,2-trifluoroethanesulfonamide] returned an IC50 of 14.8 µM.

Molecule `N#Cc1ccc(S(=O)(=O)Nc2cccc(-c3ccc(OCCc4ccc(Cl)cc4)nn3)c2)cc1` [Compound 3, N-(3-(6-(4-chlorophenethoxy)pyridazin-3-yl)phenyl)-4-cyanobenzenesulfonamide] came in with a half-maximal inhibitory concentration (IC50) of 17.2 µM.

`O=C(NS(=O)(=O)c1ccc(F)c(F)c1)c1cccc(-c2ccc(OCCc3ccc(Cl)cc3)nn2)c1` [Compound 19, 3-(6-(4-chlorophenethoxy)pyridazin-3-yl)-N-(3,4-difluorophenylsulfonyl)benzamide] displayed an IC50 of 13.9 µM.

With `O=S(=O)(Nc1cccc(-c2ccc(OCCc3ccc(Cl)cc3)nn2)c1)C(F)(F)F` [Compound 2, N-(3-(6-(4-chlorophenethoxy)pyridazin-3-yl)phenyl)-1,1,1-trifluoromethanesulfonamide], half-maximal inhibition (IC50) required 5.79 µM.

Take `CCN(Cc1ccccc1)c1ccc(-c2cccc(NS(=O)(=O)c3cccc(Br)c3)c2)nn1` [Compound 9, N-(3-(6-(benzyl(ethyl)amino)pyridazin-3-yl)phenyl)-3-bromobenzenesulfonamide]: the IC50 was 0.05 µM.

With `O=C(NS(=O)(=O)c1ccc(F)cc1)c1cccc(-c2ccc(OCCc3ccc(Cl)cc3)nn2)c1` [Compound 12, 3-(6-(4-chlorophenethoxy)pyridazin-3-yl)-N-(4-fluorophenylsulfonyl)benzamide], the IC50 was 11.7 µM.

Molecule `CCN(Cc1ccccc1)c1ccc(-c2cccc(NS(=O)(=O)c3ccc(C)cc3)c2)nn1` [Compound 8, N-(3-(6-(benzyl(ethyl)amino)pyridazin-3-yl)phenyl)-4-methylbenzenesulfonamide] yielded an IC50 of 0.05 µM.

In the case of `COc1ccc(S(=O)(=O)NC(=O)c2cccc(-c3ccc(OCCc4ccc(Cl)cc4)nn3)c2)cc1` [Compound 11, 3-(6-(4-chlorophenethoxy)pyridazin-3-yl)-N-(4-methoxyphenylsulfonyl)benzamide], the IC50 came out at 11.4 µM.

Take `CC(C)CS(=O)(=O)Nc1ccc(-c2ccc(OCCc3ccc(Cl)cc3)nn2)cc1` [Compound 24, N-(4-(6-(4-chlorophenethoxy)pyridazin-3-yl)phenyl)-2-methylpropane-1-sulfonamide]: 15.4 µM corresponded to half-maximal inhibition (IC50).

In the case of `O=C(NS(=O)(=O)c1ccc(F)c(F)c1)c1cccc(-c2ccc(OCCc3ccc(Cl)cc3)nn2)c1` [Compound 15, 3-(6-(4-chlorophenethoxy)pyridazin-3-yl)-N-(3,4-difluorophenylsulfonyl)benzamide], the concentration for half-maximal inhibition (IC50) was found to be 27.7 µM.

Regarding `CS(=O)(=O)Nc1cccc(-c2ccc(OCCc3ccc(Cl)cc3)nn2)c1` [Compound 1, N-(3-(6-(4-chlorophenethoxy)pyridazin-3-yl)phenyl)methanesulfonamide], the IC50 came to 9.79 µM.

Turning to `CCN(Cc1ccccc1)c1ccc(-c2cccc(NS(=O)(=O)C(F)(F)F)c2)nn1` [Compound 10, N-(3-(6-(benzyl(ethyl)amino)pyridazin-3-yl)phenyl)-1,1,1-trifluoromethanesulfonamide], the IC50 was determined as 7.92 µM.

`Cc1ccc(S(=O)(=O)Nc2cccc(-c3ccc(NCc4ccccc4)nn3)c2)cc1` [Compound 16, N-(3-(6-(benzylamino)pyridazin-3-yl)phenyl)-4-methylbenzenesulfonamide] registered an IC50 of 2.24 µM.

`CC(=O)Nc1ccc(S(=O)(=O)Nc2cccc(-c3ccc(OCCc4ccc(Cl)cc4)nn3)c2)cc1` [Compound 5, N-(4-(N-(3-(6-(4-chlorophenethoxy)pyridazin-3-yl)phenyl)sulfamoyl)phenyl)acetamide] showed an IC50 of 27.7 µM.

Take `CCN(Cc1ccccc1)c1ccc(-c2cccc(NS(=O)(=O)N(C)C)c2)nn1` [Compound 6, N-(3-(6-(benzyl(ethyl)amino)pyridazin-3-yl)phenyl)dimethylaminosulfonamide]: the IC50 came out at 1.4 µM.

The subject of the next test is cholera toxin (CTX) induced net fluid secretion in small intestine loops.
Experiment: not given
Details: species or system mice (CD1 strain). Particulars: mouse, in vivo.
Take `O=S(=O)(Nc1cccc(-c2ccc(OCCc3ccc(Cl)cc3)nn2)c1)C(F)(F)F` [Compound 2, N-(3-(6-(4-chlorophenethoxy)pyridazin-3-yl)phenyl)-1,1,1-trifluoromethanesulfonamide]: the “closed loop % inhibition” value is on record as 98.2%.
